The test system of data set [1] is CYP1A2. Nature of the data set: Hepatic enzyme induction (mRNA) in primary human hepatocytes, CYP1A2. The format is in vitro ADME. The settings on record: 72 hours. The procedure: (§1) Total RNA from cells was isolated using the PureLink RNA Mini Kit (Invitrogen, ThermoFisher Scientific) according to the manufacturer's protocol. Reverse transcription was performed using 30 ng of total RNA and the High Capacity cDNA Reverse Transcription kit (Applied Biosystems, ThermoFisher Scientific) according to the vendor's protocol. cDNA was measured by quantitative real time PCR using the StepOnePlus Real-Time PCR System (Applied Biosystems, Invitrogen) and TaqMan Fast Universal PCR Master Mix (Applied Biosystems, ThermoFisher Scientific). All primers and TaqMan probes were purchased from the Applied Biosystems inventory (ThermoFisher Scientific). All samples were measured in triplicate and normalized to the values for GAPDH.
(§2) Primary human hepatocytes used were the “Cryo Human Hepatocytes” from Gibco. 24 hours prior to treatment, cells were plated at 350,000 cells/well (700,000 cells/mL) in the following media: Williams E medium (WEM, A1217601), 2.5 mL FBS, 5 μL, 10 mM dexamethasone (from Gibco Thawing/Plating Supplement Pack, CM3000), 1.8 mL thawing/plating cocktail (from Gibco Thawing/Plating Supplement Pack, CM3000). […] The mRNAs for the following hepatic enzymes were quantified as described above. […]

For the next data set, the system named is HEK293 cells. Nature of the data set: Viability of HEK293 cells (trypan blue). The settings on record: 3 days treatment, 0.4 μM or 10 μM. The format is cell-based. Here is the method: (§3) HEK293T cells were transfected with Rluc-AR alone, and alongside Turbo-Elk at a 4:1 ratio of ELK1:AR using Mirus LT1 reagent. The 4:1 ratio was determined to be the optimal ratio for the inhibition assay after testing different ratios of Turbo-Elk:Rluc-AR. 24 hours later, cells were treated with DMSO (vehicle control) or KCI838 (0.4 uM and 10 uM) and left for 24 hours. They were then trypsinized and seeded in 96 well white-bottomed plates at 100,000 per well (in quadriplicate) in media lacking phenol red (with DMSO or drug as required), left for 2 hours to settle, and then treated with 25 uM coelenterazine and luminescence read at 535 and 635 nm on a Clariostar instrument. BRET readings were calculated as 635/535 ratio minus 635/535 ratio for Rluc-AR only transfected controls. Cell lysates were probed by western blot for AR or ELK1, probing for GAPDH as the loading control. Cell viability in the presence of KCI838 was ensured by treating HEK293 cells for an extended period (3 days) with the compound or vehicle control and measuring viability using trypan blue staining.
To ensure that KCI838 was not toxic to the HEK293 cells, viability of the cells was tested following extended (3 days) treatment with, vehicle, 0.4 μM, or 10 μM KCI838. Viable cells were counted after three days and the data was plotted as percent of untreated cells.

Data set [2] deals with 22Rv1 cells. Nature of the data set: Colony formation assay in 22Rv1 cells. The format is cell-based. The settings on record: 22Rv1 CRPC cells. Here is the method:
(§4) 22Rv1 cells were plated in triplicate at a density of 2000 cells/well in 6-well plates in 48-hour conditioned medium (phenol-red free RPMI1640 10% FBS, 1% penicillin/streptomycin, 1% L-glutamine) obtained from monolayer cultures of the same cells, as previously described. 48 h after plating, the cells were treated with various concentrations of the test compounds in the same media. The test compounds and media were replenished every 48 hours until colonies developed in the control untreated wells (in 10 days). The colonies were then stained with crystal violet and counted.
The ability of KCI837 to inhibit colony formation in castration and enzalutamide resistant prostate cancer cells was tested. 22Rv1 cells were seeded in triplicate six well plates in phenol red-free conditioned media. 48 hours later, treatment with KCI837 at the indicated doses was initiated. KCI837 was replenished every 48 hours. Seven days later, colonies were fixed and stained with crystal violet. Colony counts are plotted.

Another data set addresses binding of AR to ELK1 (Homo sapiens (Human), UniProt P10275). The experiment in a line: BRET assay for inhibition of in situ binding of AR to ELK1 in HEK293T cells. The format is cell-based. The settings on record: HEK-293T, read-out: inhibition of BRET signal for binding of AR to ELK1. Here is the method: as §3
HEK293T cells were transfected with Rluc-AR alone, and alongside Turbo-Elk. 24 hours later, cells were treated with KCI838 at the indicated doses. The following day, the cells were reseeded and allowed to settle for two hours before the BRET assay was performed. […]

Data set [3] deals with UGT1A1 (Homo sapiens (Human), UniProt P22309). The experiment in a line: UGT1A1 inhibition assay with human UGT1A1-expressed Supersomes. The format is in vitro ADME. Here is the method:
KCI838 was incubated at seven increasing concentrations with human UGT1A1-expressed Supersomes™ (0.25 mg/mL), alamethicin (25 μg/mL) and UDPGA (5 mM) in the presence of the probe substrate estradiol (10 μM) for 30 min at 37° C. The UGT1A1 inhibitor, atazanavir, was screened alongside the test compounds as a positive control. The reactions were terminated by quenching with one volume of methanol containing an analytical internal standard. The samples will be centrifuged at 5000 rpm for 10 min at 4° C. The metabolites were monitored by LC-MS/MS and a decrease in the formation of the metabolite compared to the vehicle control was used to calculate an IC50 value (test compound concentration which produces 50% inhibition).

Another data set has as its system 22Rv1-Lenti AR cells. The experiment in a line: Colony formation in 22Rv1 cells overexpressing AR. The format is cell-based. The settings on record: AR overexpressing 22Rv1 cells. Here is the method:
as §4
(§5) AR expressing lentiviral expression plasmid pCDH-CMV-MCS-EF1-puro (System BioSciences) or the plasmid vector alone (control), was packaged in 293FT cells. Virus-containing media was harvested at 48 and 72 hours after packaging and stored at −80° C. 48 hours before infection, 22Rv1 cells were plated at 30-50% confluence in 10 cm dishes in phenol-red free medium supplemented with 10% heat-inactivated FBS and 2 mM L-glutamine. On the day of infection, cells were infected with the lentivirus with polybrene (8 μg/mL) for a duration of 5 hours. The virus was then replaced with fresh medium containing 10% FBS and 100 units/mL penicillin, 100 μg/mL streptomycin, and 2 mM L-glutamine mixture. […]

Data set [4] relates to UGT1A1. The experiment in a line: Hepatic enzyme induction (mRNA) in primary human hepatocytes, UGT1A1. The settings on record: 72 hours, doses of 0.5 uM and 5 uM. The format is in vitro ADME. The procedure:
as §1, §2

A further data set has as its system UGT1A4. The experiment in a line: Hepatic enzyme induction (mRNA) in primary human hepatocytes, UGT1A4. The format is in vitro ADME. The settings on record: 72 hours, doses of 0.5 uM and 5 uM. Here is the method:
as §1, §2

The next data set has as its system 22Rv1-Lenti vector cells. The experiment in a line: Colony formation in control 22Rv1 cells transduced with lentiviral vector alone. The format is cell-based. The settings on record: control 22Rv1 cells (vector), with DHT. The procedure:
as §4, §5

In data set [5] the target is CYP1A2 (Homo sapiens (Human), UniProt P05177). The experiment in a line: CYP1A2 inhibition assay in pooled human liver microsomes. The format is in vitro ADME. The settings on record: standard enzymatic activity assay. The procedure:
The quenched samples were incubated at 4° C. for 10 min and centrifuged at 4° C. for 10 min.

Data set [6] in a line: Repeated intraperitoneal administration to mice (toxicity, body weight). The format is in vivo, BalbC mice. The settings on record: for initial weight loss: male BalbC mice, intraperitoneal. Here is the method: KCI838 was repeatedly administered by intraperitoneal injection to two groups of 6-week old male BalbC mice at doses of 200 mg/Kg and 100 mg/Kg.
Another data set concerns CWR22Rv1-AR-EK cells. The experiment in a line: MTT growth assay in CWR22Rv1-AR-EK cells. The format is cell-based. The settings on record: three or four days. Here is the method: This model cell line thus mimics aggressively growing advanced prostate cancer tumor cells that are insensitive to current treatments such as testosterone suppression and androgen antagonists that cannot affect AR-Vs. Since KCI838 disrupts interaction of ELK1 with wtAR as well as AR-Vs, the effect of KCI838 on the growth of CWR22Rv1-AR-EK cells was tested. For this test, the cells were seeded in phenol red-free growth media. 24 hours later, the cells were treated with KCI838, FIG. 12A, or enzalutamide, FIG. 12B, at the indicated concentrations. Cells were grown for three or four days with replenishment of the drug at 48 hours. Cell viability was measured using the MTT assay.

A further data set deals with VCaP cells. Nature of the data set: Cell viability (MTT) assay, monolayer growth of VCaP cells. The settings on record: dose range 2.5 uM-10 uM; dose-dependent. The format is cell-based. The procedure:
(§6) Cells from monolayer cultures were trypsinized and seeded in 96-well plates coated with poly(d-lysine) at a density of 4000 cells per well (for 22Rv1 cells and LNCaP cells) or 5000 cells per well (for VCaP cells). The media used were the same as the growth media described above for each cell line. The plates were incubated at 37° C. in 5% CO2. Twenty-four hours later, the cells were treated with the indicated compound or dimethylsulfoxide (vehicle). The culture medium was replaced with fresh media containing vehicle or the appropriate concentration of compound at the end of 48 hours during the time course of the assay. Cell viability was determined on Day 0 and at the various time points using the standard 3-(4,5-dimethylthiazol-2-yl)-2,5-diphenyltetrazolium bromide (MTT) assay. The assays ware conducted in replicates of six wells per condition and values plotted as percent of the Day 0 values.

The subject of data set [7] is 22Rv1 cells. Nature of the data set: Cell viability (MTT) assay, monolayer growth of 22Rv1 cells. The format is cell-based. The settings on record: enzalutamide-resistant 22Rv1 CRPC monolayers; 2.5 uM, 5 uM and 10 uM. The procedure:
as §6

Like-named read-outs stand apart in the source and are kept apart here.

Sequence of binding of AR to ELK1 (P10275 whole entry): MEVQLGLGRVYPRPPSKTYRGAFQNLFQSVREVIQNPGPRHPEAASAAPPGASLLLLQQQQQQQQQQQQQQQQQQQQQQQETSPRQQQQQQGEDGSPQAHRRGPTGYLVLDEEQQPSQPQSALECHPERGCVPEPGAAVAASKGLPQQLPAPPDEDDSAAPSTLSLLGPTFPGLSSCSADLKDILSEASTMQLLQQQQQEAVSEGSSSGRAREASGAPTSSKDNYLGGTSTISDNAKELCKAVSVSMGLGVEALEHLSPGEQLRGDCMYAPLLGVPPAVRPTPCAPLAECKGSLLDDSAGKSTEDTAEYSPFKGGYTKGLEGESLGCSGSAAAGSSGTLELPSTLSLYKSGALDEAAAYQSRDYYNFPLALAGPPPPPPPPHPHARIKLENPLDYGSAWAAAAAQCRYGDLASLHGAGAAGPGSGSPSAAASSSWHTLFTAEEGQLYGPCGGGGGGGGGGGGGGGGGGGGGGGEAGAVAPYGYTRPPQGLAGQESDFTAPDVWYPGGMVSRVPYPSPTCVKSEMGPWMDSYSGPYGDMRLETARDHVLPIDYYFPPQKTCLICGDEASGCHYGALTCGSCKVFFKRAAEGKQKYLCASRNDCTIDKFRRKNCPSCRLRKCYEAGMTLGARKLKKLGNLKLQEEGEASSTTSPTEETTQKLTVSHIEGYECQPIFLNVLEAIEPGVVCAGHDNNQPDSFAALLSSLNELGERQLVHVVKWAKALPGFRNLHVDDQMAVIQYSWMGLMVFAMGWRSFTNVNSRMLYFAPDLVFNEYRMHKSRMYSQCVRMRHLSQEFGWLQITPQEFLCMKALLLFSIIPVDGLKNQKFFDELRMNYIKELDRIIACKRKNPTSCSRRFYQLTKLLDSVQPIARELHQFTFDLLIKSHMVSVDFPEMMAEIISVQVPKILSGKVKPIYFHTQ
Sequence of UGT1A1 (Homo sapiens (Human), UniProt P22309) (P22309 26-533): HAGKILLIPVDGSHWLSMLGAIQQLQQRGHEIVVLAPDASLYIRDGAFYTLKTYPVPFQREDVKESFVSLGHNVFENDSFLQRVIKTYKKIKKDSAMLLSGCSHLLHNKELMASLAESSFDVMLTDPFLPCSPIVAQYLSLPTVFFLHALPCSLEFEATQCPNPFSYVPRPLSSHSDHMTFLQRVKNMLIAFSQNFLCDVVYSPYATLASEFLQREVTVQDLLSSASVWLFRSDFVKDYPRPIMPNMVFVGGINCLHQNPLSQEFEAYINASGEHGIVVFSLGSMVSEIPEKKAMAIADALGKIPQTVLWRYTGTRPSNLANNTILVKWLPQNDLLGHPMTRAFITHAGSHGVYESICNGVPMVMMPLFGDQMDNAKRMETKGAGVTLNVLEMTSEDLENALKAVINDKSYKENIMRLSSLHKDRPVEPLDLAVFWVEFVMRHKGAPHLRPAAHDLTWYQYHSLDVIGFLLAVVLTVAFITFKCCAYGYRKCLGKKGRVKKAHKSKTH
Sequence of CYP1A2 (Homo sapiens (Human), UniProt P05177) (P05177 whole entry): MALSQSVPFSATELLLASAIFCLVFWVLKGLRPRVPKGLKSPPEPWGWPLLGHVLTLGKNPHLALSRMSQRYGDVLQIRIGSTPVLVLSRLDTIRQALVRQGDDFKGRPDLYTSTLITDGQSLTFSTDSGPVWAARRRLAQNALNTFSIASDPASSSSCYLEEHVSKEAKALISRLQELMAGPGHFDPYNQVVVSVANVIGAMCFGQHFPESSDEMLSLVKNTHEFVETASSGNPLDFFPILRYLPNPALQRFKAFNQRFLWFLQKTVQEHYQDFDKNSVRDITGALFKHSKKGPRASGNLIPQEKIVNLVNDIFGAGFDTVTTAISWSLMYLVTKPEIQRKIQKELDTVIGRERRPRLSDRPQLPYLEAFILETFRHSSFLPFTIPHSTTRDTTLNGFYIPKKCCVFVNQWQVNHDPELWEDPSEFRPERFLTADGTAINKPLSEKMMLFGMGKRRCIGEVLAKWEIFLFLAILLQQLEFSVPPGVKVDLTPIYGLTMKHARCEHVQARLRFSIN

On to `O=c1cc(-c2cccc(O)c2)n(CC(F)(F)F)c2cccc(O)c12` [KCI838], for which the “induction of CYP1A2” value is recorded as “unable to induce CYP1A2” in the data set with CYP1A2 [1] (0.5 uM dose) and “induce the enzyme” in the data set on CYP1A2 [1] (higher doses than 0.5 uM). The “viability of HEK293 cells” value in the data set with HEK293 cells was “virtually completely viable”. Further, the IC50 is ~60 nM in the data set with 22Rv1 cells [2] (Homo sapiens, read-out: IC50 of colony counts); 35900 nM on UGT1A1 [3] (standard enzymatic activity assay, read-out: IC50 value for UGT1A1); 132 nM with 22Rv1-Lenti AR cells (Homo sapiens, with DHT, read-out: IC50 for inhibition of colony formation); 68 nM in the data set with 22Rv1-Lenti vector cells (Homo sapiens, read-out: IC50 for inhibition of colony formation); 2920 nM against CYP1A2 [5]. The inhibition at 0.4 µM on binding of AR to ELK1 (0.4 μM) worked out at 60%. The inhibition at 10 µM on binding of AR to ELK1 (10 μM) was determined as 95%. In addition, the “inhibition of colony formation at 68 nM” value with 22Rv1-Lenti AR cells (68 nM) is on record as “no inhibition”. In addition, in the data set with UGT1A1 [4], the “induction of UGT1A1” value is recorded as “not induced significantly”. The “induction of UGT1A4” value in the data set with UGT1A4 was “not induced significantly”. Besides, the “IC75 for inhibition of colony formation” value with 22Rv1-Lenti vector cells came to 121 nM. In data set [6] (6-week old male BalbC mice, repeated intraperitoneal injection, 200 mg/Kg and 100 mg/Kg), the signs of toxicity entry is “no apparent signs of toxicity”. Also, the figures for the initial weight loss in data set [6] (100 mg/Kg) and in data set [6] (200 mg/Kg) were ~2% and ~4%, respectively.
With `COC(=O)N[C@H](C(=O)N[C@@H](Cc1ccccc1)[C@@H](O)CN(Cc1ccc(-c2ccccn2)cc1)NC(=O)[C@@H](NC(=O)OC)C(C)(C)C)C(C)(C)C` [atazanavir, reference compound], the IC50 on UGT1A1 [3] (human UGT1A1 Supersomes, probe substrate estradiol (10 μM), 30 min at 37° C., read-out: IC50) was 792 nM.
With `CNC(=O)c1ccc(N2C(=S)N(c3ccc(C#N)c(C(F)(F)F)c3)C(=O)C2(C)C)cc1F` [enzalutamide], the “growth of CWR22Rv1-AR-EK cells” value with CWR22Rv1-AR-EK cells was “insensitive”. The “effect on colony formation” value in the data set on 22Rv1 cells [2] (nanomolar dose range) is listed as “no effect on colony formation”. For the same molecule, the “monolayer growth of VCaP cells” value with VCaP cells is given as “inhibited monolayer growth”. For the same molecule, the “time course of growth inhibition” value in the data set with 22Rv1 cells [7] is “did not inhibit cell growth”.

For the origin of these results see US11938127B2, “Methods and compositions relating to steroid hormone receptor-dependent proliferative disorders” (Wayne State University, priority 2021, dated 2024).
